The values that follow are results of earlier work, collected in US11077125B2, “Ophthalmic composition containing sulfasalazine and hyaluronic acid” (KUKJE PHARMA CO., LTD., priority 2016, dated 2021).

Molecules are shown by their SMILES. Values after ≈ are worked out from the molar mass of the structure shown.

For orientation: solubility means how much of the substance goes into solution per volume.

The conditions of this data set: in water.

Take `O=C(O)c1cc(/N=N/c2ccc(S(=O)(=O)Nc3ccccn3)cc2)ccc1O` [Sulfasalazine]: the solubility is 46.4 µg/mL (≈ 116 µM).
